Target: human mGlu5a receptor (Homo sapiens (Human), UniProt P41594)
Experiment: Intracellular Ca2+ mobilization assay (mGlu5 PAM)
Format: cell-based
Details: for EC50: HEK-293 cells stably transfected with human mGlu5a, L-glutamate added at EC20 (typically around 80 μM); for Emax: read-out: Eff. (%)
Experimental: A monoclonal HEK-293 cell line stably transfected with a cDNA encoding for the human mGlu5a receptor was generated; for the work with mGlu5 Positive Allosteric Modulators (PAMs), a cell line with low receptor expression levels and low constitutive receptor activity was selected to allow the differentiation of agonistic versus PAM activity. Cells were cultured according to standard protocols (Freshney, 2000) in Dulbecco's Modified Eagle Medium with high glucose supplemented with 1 mM glutamine, 10% (vol/vol) heat-inactivated bovine calf serum, Penicillin/Streptomycin, […] hygromycin and 15 μg/ml blasticidin (all cell culture reagents and antibiotics from Invitrogen, Basel, Switzerland).
About 24 hrs before an experiment, 5×10^4 cells/well were seeded in poly-D-lysine coated, black/clear-bottomed 96-well plates. The cells were loaded with 2.5 μM Fluo-4AM in loading buffer (1×HBSS, 20 mM HEPES) for 1 hr at 37° C. and washed five times with loading buffer. The cells were transferred into a Functional Drug Screening System 7000 (Hamamatsu, Paris, France), and 11 half logarithmic serial dilutions of test compound at 37° C. were added and the cells were incubated for 10-30 min. with on-line recording of fluorescence. Following this pre-incubation step, the agonist L-glutamate was added to the cells at a concentration corresponding to EC20 (typically around 80 μM) with on-line recording of fluorescence; in order to account for day-to-day variations in the responsiveness of cells, the EC20 of glutamate was determined immediately ahead of each experiment by recording of a full dose-response curve of glutamate.
Responses were measured as peak increase in fluorescence minus basal (i.e. fluorescence without addition of L-glutamate), normalized to the maximal stimulatory effect obtained with saturating concentrations of L-glutamate. Graphs were plotted with the % maximal stimulatory using XLfit, a curve fitting program that iteratively plots the data using Levenburg Marquardt algorithm. The single site competition analysis equation used was y=A+((B−A)/(1+((x/C)D))), where y is the % maximal stimulatory effect, A is the minimum y, B is the maximum y, C is the EC50, x is the log 10 of the concentration of the competing compound and D is the slope of the curve (the Hill Coefficient). From these curves the EC50 (concentration at which half maximal stimulation was achieved), the Hill coefficient as well as the maximal response in % of the maximal stimulatory effect obtained with saturating concentrations of L-glutamate were calculated.
A depression of the signal observed after addition of the EC20 concentration of L-glutamate was indicative of an inhibitory activity of the test compound.

[1] = maximal response in % of the maximal stimulatory effect obtained with saturating concentrations of L-glutamate

Sequence of human mGlu5a receptor (P41594 other isoform, or with tags, fused parts or gaps): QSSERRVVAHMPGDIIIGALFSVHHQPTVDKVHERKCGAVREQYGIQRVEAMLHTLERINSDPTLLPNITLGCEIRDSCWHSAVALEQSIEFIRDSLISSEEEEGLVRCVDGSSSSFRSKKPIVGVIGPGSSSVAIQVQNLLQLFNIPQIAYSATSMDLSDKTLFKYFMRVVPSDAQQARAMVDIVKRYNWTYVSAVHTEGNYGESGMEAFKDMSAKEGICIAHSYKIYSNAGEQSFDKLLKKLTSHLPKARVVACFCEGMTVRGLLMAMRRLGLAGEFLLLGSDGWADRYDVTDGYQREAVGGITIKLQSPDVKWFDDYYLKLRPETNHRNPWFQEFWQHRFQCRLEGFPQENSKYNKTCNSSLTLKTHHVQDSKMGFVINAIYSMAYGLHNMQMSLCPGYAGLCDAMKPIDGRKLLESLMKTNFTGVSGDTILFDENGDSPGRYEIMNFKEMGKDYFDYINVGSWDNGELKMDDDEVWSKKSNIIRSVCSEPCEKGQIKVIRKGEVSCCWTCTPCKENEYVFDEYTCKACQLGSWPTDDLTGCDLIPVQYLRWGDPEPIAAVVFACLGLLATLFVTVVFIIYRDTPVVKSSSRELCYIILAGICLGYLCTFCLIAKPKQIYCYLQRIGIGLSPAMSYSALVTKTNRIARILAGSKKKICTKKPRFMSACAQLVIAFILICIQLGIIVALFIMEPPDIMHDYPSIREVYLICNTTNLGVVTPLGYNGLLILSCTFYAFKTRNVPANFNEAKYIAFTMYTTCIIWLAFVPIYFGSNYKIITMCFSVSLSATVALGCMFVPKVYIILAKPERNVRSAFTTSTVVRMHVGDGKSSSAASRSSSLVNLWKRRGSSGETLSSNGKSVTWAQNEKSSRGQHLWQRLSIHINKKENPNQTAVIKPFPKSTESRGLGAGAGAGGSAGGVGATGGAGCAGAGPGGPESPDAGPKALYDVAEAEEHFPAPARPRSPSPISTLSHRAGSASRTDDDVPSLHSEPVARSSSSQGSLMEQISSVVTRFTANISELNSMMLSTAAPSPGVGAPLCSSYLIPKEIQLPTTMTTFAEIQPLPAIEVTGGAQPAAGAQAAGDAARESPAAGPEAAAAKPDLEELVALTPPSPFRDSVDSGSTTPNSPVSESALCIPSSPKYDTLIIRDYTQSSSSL

Row | SMILES | EC50 [nM] | Emax [1] [%] | Eff. (%) [1] [%]
1 | CN1C(=O)C(c2ccc(C#Cc3ccccc3)cn2)CCC1(C)C (racemic) [Example 12, (RS)-1,6,6-Trimethyl-3-(5-(phenylethynyl)pyridin-2-yl)piperidin-2-one] | 113 | 103 | 
2 | CN1C(=O)C(c2ccc(C#Cc3cccc(Cl)c3)cn2)CC1(C)C (racemic) [Example 3, (RS)-3-(5-((3-chlorophenyl)ethynyl)pyridin-2-yl)-1,5,5-trimethylpyrrolidin-2-one] | 38 | 81 | 
3 | CN1C(=O)C(c2ncc(C#Cc3ccccc3)cn2)CCC1(C)C (racemic) [Example 15, (RS)-1,6,6-Trimethyl-3-(5-(phenylethynyl)pyrimidin-2-yl)piperidin-2-one] | 179 | 91 | 
4 | CN1C(=O)C(c2ncc(C#Cc3ccccc3)cn2)CC1(C)C (racemic) [Example 6, (RS)-1,5,5-Trimethyl-3-(5-(phenylethynyl)pyrimidin-2-yl)pyrrolidin-2-one] | 130 | 90 | 
5 | CN1C(=O)C(C(=O)OCc2ccccc2)(c2ncc(C#Cc3ccccc3)cn2)CC1(C)C (racemic) [Example 5, (RS)-Benzyl 1,5,5-trimethyl-2-oxo-3-(5-(phenylethynyl)pyrimidin-2-yl)pyrrolidine-3-carboxylate] | 528 | 48 | 
6 | CN1C(=O)[C@@H](c2ccc(C#Cc3ccccc3)cn2)[C@@H]2CCC[C@@H]21 (single isomer, unassigned) [Example 28, (3R,3aS,6aS) or (3S,3aR,6aR)-1-Methyl-3-(5-phenylethynyl-pyridin-2-yl)-hexahydro-cyclopenta[b]pyrrol-2-one] | 24 |  | 58
7 | CN1C(=O)C(c2ccc(C#Cc3cccc(F)c3)nn2)CC1(C)C (racemic) [Example 9, (RS)-3-(6-((3-Fluorophenyl)ethynyl)pyridazin-3-yl)-1,5,5-trimethylpyrrolidin-2-one] | 34 | 88 | 
8 | CN1C(=O)C(c2ccc(C#Cc3cccc(F)c3)cn2)CC1(C)C (racemic) [Example 4, (RS)-3-(5-((3-Fluorophenyl)ethynyl)pyridin-2-yl)-1,5,5-trimethylpyrrolidin-2-one] | 61 | 103 | 
9 | CN1C(=O)[C@@H](c2ccc(C#Cc3cccc(F)c3)cn2)[C@@H]2CCCC[C@@H]21 [Example 40, (3R,6S,7S)-3-[5-(3-Fluoro-phenylethynyl)-pyridin-2-yl]-1-methyl-octahydro-indol-2-one] | 89 | 68 | 
10 | CN1C(=O)[C@@H](c2ccc(C#Cc3ccc(F)cc3)cn2)[C@@H]2CCC[C@@H]21 (racemic) [Example 29, (3RS,3aSR,6aSR)-3-[5-(4-Fluoro-phenylethynyl)-pyridin-2-yl]-1-methyl-hexahydro-cyclopenta[b]pyrrol-2-one] | 78 | 53 | 
11 | CN1C(=O)[C@@H](c2ccc(C#Cc3ccnc(Cl)c3)cn2)CC1(C)C (single isomer, unassigned) [Example 45, (S) or (R)-3-[5-(2-Chloro-pyridin-4-ylethynyl)-pyridin-2-yl]-1,5,5-trimethyl-pyrrolidin-2-one] | 65 | 36 | 
12 | CN1C(=O)C(c2ccc(C#Cc3ccnc(Cl)c3)cn2)CC1(C)C (racemic) [Example 44, (RS)-3-[5-(2-Chloro-pyridin-4-ylethynyl)-pyridin-2-yl]-1,5,5-trimethyl-pyrrolidin-2-one] | 88 | 32 | 
13 | CN1C(=O)[C@H](c2ccc(C#Cc3ccc(F)cc3)cn2)[C@H]2CCCC[C@H]21 [Example 43, (3S,6R,7R)-3-[5-(4-fluoro-phenylethynyl)-pyridin-2-yl]-1-methyl-octahydro-indol-2-one] | 146 | 53 | 
14 | CN1C(=O)[C@@H](c2ccc(C#Cc3ccccc3)cn2)[C@@H]2CCC[C@@H]21 (racemic) [Example 27, (3RS,3aSR,6aSR)-1-Methyl-3-(5-phenylethynyl-pyridin-2-yl)-hexahydro-cyclopenta[b]pyrrol-2-one] | 47 | 53 | 
15 | CN1C(=O)[C@H](c2ccc(C#Cc3cccc(F)c3)cn2)[C@H]2CCCC[C@H]21 [Example 41, (3S,6R,7R)-3-[5-(3-fluoro-phenylethynyl)-pyridin-2-yl]-1-methyl-octahydro-indol-2-one] | 68 | 56 | 
16 | CN1C(=O)[C@@H](c2ccc(C#Cc3ccccc3)cn2)[C@@H]2CCCC[C@@H]21 (racemic) [Example 34, (3RS,6SR,7SR)-1-Methyl-3-(5-phenylethynyl-pyridin-2-yl)-octahydro-indol-2-one] | 185 | 82 | 
17 | CN1C(=O)C(c2ncc(C#Cc3cccc(F)c3)cn2)CC1(C)C (racemic) [Example 7, (RS)-3-(5-((3-fluorophenyl)ethynyl)pyrimidin-2-yl)-1,5,5-trimethylpyrrolidin-2-one] | 137 | 85 | 
